From BindingDB's records for doi:10.1021/jm000209n (Tohoku University, 2000)

Tests used:
[1] = Tested in vitro against HIV-1 MDR using MAGI assay
[2] = Tested in vitro against HIV-1 LAI from MT-4 cells using MTT assay

C#C[C@]1(CO)O[C@@H](n2cc(C)c(N)nc2=O)C[C@H]1O [4-Amino-1-(5-ethynyl-4-hydroxy-5-hydroxymethyl-tetrahydro-furan-2-yl)-5-methyl-1H-pyrimidin-2-one]
EC50 [1]: 0.0045 µM | EC50 [2]: 0.011 µM

C#C[C@]1(CO)O[C@@H](n2cc(Cl)c(=O)[nH]c2=O)C[C@H]1O
EC50 [2]: 6 µM

C#C[C@]1(CO)O[C@@H](n2cc(F)c(N)nc2=O)C[C@H]1O [4-Amino-1-(5-ethynyl-4-hydroxy-5-hydroxymethyl-tetrahydro-furan-2-yl)-5-fluoro-1H-pyrimidin-2-one]
EC50 [1]: 0.009 µM | EC50 [2]: 0.03 µM

C#C[C@]1(CO)O[C@@H](n2cc(CC)c(=O)[nH]c2=O)C[C@H]1O
EC50 [2]: > 360 µM

C#C[C@]1(CO)O[C@@H](n2cnc3c(=O)[nH]c(N)nc32)C[C@H]1O [2-Amino-9-(5-ethynyl-4-hydroxy-5-hydroxymethyl-tetrahydro-furan-2-yl)-9H-purin-6-ol]
EC50 [2]: 0.0014 µM

Cc1cn([C@H]2C[C@H](N=[N+]=[N-])[C@@H](CO)O2)c(=O)[nH]c1=O [1-((2R,4S,5S)-4-Azido-5-hydroxymethyl-tetrahydro-furan-2-yl)-5-methyl-1H-pyrimidine-2,4-dione]
EC50 [1]: 24.9 µM | EC50 [2]: 0.038 µM

C#C[C@]1(CO)O[C@@H](n2ccc(N)nc2=O)C[C@H]1O [4-Amino-1-(5-ethynyl-4-hydroxy-5-hydroxymethyl-tetrahydro-furan-2-yl)-1H-pyrimidin-2-one]
EC50 [1]: 0.0015 µM | EC50 [2]: 0.0048 µM

C#C[C@]1(CO)O[C@@H](n2cnc3c(=O)[nH]cnc32)C[C@H]1O [9-(5-Ethynyl-4-hydroxy-5-hydroxymethyl-tetrahydro-furan-2-yl)-9H-purin-6-ol]
EC50 [1]: 0.65 µM | EC50 [2]: 0.15 µM

C#C[C@]1(CO)O[C@@H](n2cc(Br)c(=O)[nH]c2=O)C[C@H]1O
EC50 [2]: 2.3 µM

C#C[C@]1(CO)O[C@@H](n2cnc3c(N)nc(N)nc32)C[C@H]1O [5-(2,6-Diamino-purin-9-yl)-2-ethynyl-2-hydroxymethyl-tetrahydro-furan-3-ol]
EC50 [1]: 0.0013 µM | EC50 [2]: 0.0003 µM

C#C[C@]1(CO)O[C@@H](n2cc(F)c(=O)[nH]c2=O)C[C@H]1O
EC50 [2]: > 10 µM

C#C[C@]1(CO)O[C@@H](n2cnc3cncnc32)C[C@H]1O [2-Ethynyl-2-hydroxymethyl-5-purin-9-yl-tetrahydro-furan-3-ol]
EC50 [1]: 145 µM | EC50 [2]: 117 µM

C#C[C@]1(CO)O[C@@H](n2cnc3c(N)ncnc32)C[C@H]1O [5-(6-Amino-purin-9-yl)-2-ethynyl-2-hydroxymethyl-tetrahydro-furan-3-ol]
EC50 [2]: 0.012 µM

C#C[C@]1(CO)O[C@@H](n2cc(I)c(=O)[nH]c2=O)C[C@H]1O [1-(5-Ethynyl-4-hydroxy-5-hydroxymethyl-tetrahydro-furan-2-yl)-5-iodo-1H-pyrimidine-2,4-dione]
EC50 [1]: 0.62 µM | EC50 [2]: 0.34 µM

C#C[C@]1(CO)O[C@@H](n2cc(C)c(=O)[nH]c2=O)C[C@H]1O [1-(5-Ethynyl-4-hydroxy-5-hydroxymethyl-tetrahydro-furan-2-yl)-5-methyl-1H-pyrimidine-2,4-dione]
EC50 [1]: 0.24 µM | EC50 [2]: 0.61 µM
